Key:
[1] = tested on: SW480; assay: Cytotoxicity against human SW480 cells assessed as reduction in cell viability after 48 hrs by MTT assay; assay type: functional, cell-based; conditions: SW480, 48 h
[2] = tested on: A549; assay: Cytotoxicity against human A549 cells assessed as reduction in cell viability after 48 hrs by MTT assay; assay type: functional, cell-based; conditions: A549, 48 h
[3] = tested on: HL-60; assay: Cytotoxicity against human HL60 cells assessed as reduction in cell viability after 48 hrs by MTT assay; assay type: functional, cell-based; conditions: HL-60, 48 h
[4] = tested on: SMMC-7721; assay: Cytotoxicity against human SMMC7721 cells assessed as reduction in cell viability after 48 hrs by MTT assay; assay type: functional, cell-based; conditions: SMMC-7721, 48 h
[5] = tested on: MCF7; assay: Cytotoxicity against human MCF7 cells assessed as reduction in cell viability after 48 hrs by MTT assay; assay type: functional, cell-based; conditions: MCF7, 48 h
[6] = target: Acetylcholinesterase (Homo sapiens, UniProt P22303); assay: Inhibition of human erythrocytes acetylcholinesterase after 30 mins using S-acetylthiocholine iodide substrate by spectrophotometry based Ellman method
Acetylcholinesterase, sequence (P22303 whole entry): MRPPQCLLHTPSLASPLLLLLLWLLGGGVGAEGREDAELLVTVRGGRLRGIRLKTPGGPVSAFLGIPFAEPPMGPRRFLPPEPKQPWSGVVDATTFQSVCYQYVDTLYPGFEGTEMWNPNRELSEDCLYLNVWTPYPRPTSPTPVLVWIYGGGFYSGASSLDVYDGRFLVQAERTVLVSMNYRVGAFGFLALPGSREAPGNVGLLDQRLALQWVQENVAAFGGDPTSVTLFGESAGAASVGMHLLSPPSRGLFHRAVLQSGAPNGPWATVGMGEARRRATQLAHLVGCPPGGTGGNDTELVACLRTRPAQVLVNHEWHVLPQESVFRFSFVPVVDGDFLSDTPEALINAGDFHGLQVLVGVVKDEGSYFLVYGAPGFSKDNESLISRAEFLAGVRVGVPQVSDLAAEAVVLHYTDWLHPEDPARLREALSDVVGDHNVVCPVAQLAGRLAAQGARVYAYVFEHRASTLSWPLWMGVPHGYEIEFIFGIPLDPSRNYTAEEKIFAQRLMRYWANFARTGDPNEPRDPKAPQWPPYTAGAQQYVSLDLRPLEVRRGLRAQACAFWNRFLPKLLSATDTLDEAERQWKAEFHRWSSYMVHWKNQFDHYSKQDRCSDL

CCC(C)C(=O)[C@]12C(=O)[C@]3(CC=C(C)C)OC1(O)[C@](CC=C(C)C)(C[C@H](CC=C(C)C)[C@@]2(C)CCC=C(C)C)C3=O (some centres undefined)
IC50 [1]: > 40 µM | IC50 [2]: > 40 µM | IC50 [3]: > 40 µM | IC50 [4]: > 40 µM | IC50 [5]: > 40 µM

CC(C)=CCC/C(C)=C/C[C@]12C[C@@H]3[C@@H]4[C@@H](O)C(C)(C)[C@@H](C(C)C)CC4(C1=O)C(=O)[C@](C(=O)c1ccccc1)(C2=O)C3(C)C
IC50 [1]: 19.1 µM | IC50 [2]: 13.3 µM | IC50 [3]: 14.5 µM | IC50 [4]: 14.2 µM | IC50 [5]: 17.6 µM

CC(C)=CC[C@]12C[C@@H]3[C@@H]4[C@@H](O)C(C)(C)[C@@H](C(C)C)CC4(C1=O)C(=O)[C@](C(=O)c1ccccc1)(C2=O)C3(C)C
IC50 [6]: 26.4 µM | IC50 [1]: 17.4 µM | IC50 [2]: 14.2 µM | IC50 [3]: 16.5 µM | IC50 [4]: 16.5 µM | IC50 [5]: 14.1 µM

CCC(C)C(=O)[C@@]12C(=O)C(CC=C(C)C)=C3O[C@H](C(C)(C)O)C[C@]3(C[C@H](CC=C(C)C)[C@@]1(C)CCC=C(C)C)C2=O (some centres undefined)
IC50 [1]: > 40 µM | IC50 [2]: > 40 µM | IC50 [3]: > 40 µM | IC50 [4]: > 40 µM | IC50 [5]: > 40 µM

CCC(C)C(=O)[C@]12C(=O)[C@]3(CC=C(C)C)C[C@H](CC=C(C)C)[C@@]1(C)CC[C@@H](C(C)(C)O)OC2=C(CC=C(C)C)C3=O (some centres undefined)
IC50 [6]: 37.2 µM

CC(C)=CCC[C@]1(C)[C@@H](CC=C(C)C)C[C@]2(CC=C(C)C)C(=O)C(CC=C(C)C)=C(O)[C@@]1(C(=O)C(C)C)C2=O
IC50 [1]: > 40 µM | IC50 [2]: > 40 µM | IC50 [3]: > 40 µM | IC50 [4]: > 40 µM | IC50 [5]: > 40 µM

C=C(C)[C@H]1CC[C@@](C)(O)[C@@H](C2=C(O)C(CC=C(C)C)(CC=C(C)C)C(=O)C(C(=O)C(C)C)=C2O)C1
IC50 [6]: 25.4 µM

CC(C)=CCC[C@]1(C)[C@@H](CC=C(C)C)C[C@]23C[C@@H](C(C)(C)O)OC2=C(CC=C(C)C)C(=O)[C@@]1(C(=O)C(C)C)C3=O
IC50 [1]: > 40 µM | IC50 [2]: > 40 µM | IC50 [3]: > 40 µM | IC50 [4]: > 40 µM | IC50 [5]: > 40 µM

CC(C)=CCC/C(C)=C/C[C@]12C[C@@H]3[C@H](C=C(C)C)[C@](CC=C(C)C)(C1=O)C(=O)[C@](C(=O)c1ccccc1)(C2=O)C3(C)C
IC50 [1]: > 40 µM | IC50 [2]: > 40 µM | IC50 [3]: > 40 µM | IC50 [4]: > 40 µM | IC50 [5]: > 40 µM

CC(C)=CCC[C@]1(C)[C@@H](CC=C(C)C)C[C@]2(CC=C(C)C)C(=O)[C@@]3(CC=C(C)C)OC2(O)[C@]1(C(=O)C(C)C)C3=O
IC50 [1]: > 40 µM | IC50 [2]: > 40 µM | IC50 [3]: > 40 µM | IC50 [4]: > 40 µM | IC50 [5]: > 40 µM

CC(C)=CCC[C@]1(C)[C@@H](CC=C(C)C)C[C@]23C[C@@H](C(C)(C)O)OC2=C(CC=C(C)C)C(=O)[C@@]1(C(=O)c1ccccc1)C3=O
IC50 [1]: > 40 µM | IC50 [2]: > 40 µM | IC50 [3]: > 40 µM | IC50 [4]: > 40 µM | IC50 [5]: > 40 µM

CC(C)=CC[C@]12C[C@@H]3[C@@H]4[C@@H](O)C(C)(C)[C@@H](C(C)(C)O)CC4(C1=O)C(=O)[C@](C(=O)c1ccccc1)(C2=O)C3(C)C
IC50 [1]: > 40 µM | IC50 [2]: 24.9 µM | IC50 [3]: 17.1 µM | IC50 [4]: 20.8 µM | IC50 [5]: 28.4 µM

CC(C)=CCC1(CC=C(C)C)C(=O)[C@]2(C[C@H]3[C@@H](CC[C@@]3(C)O)[C@](C)(O)C2)C(=O)C(C(=O)C(C)C)=C1O
IC50 [1]: > 40 µM | IC50 [2]: > 40 µM | IC50 [3]: > 40 µM | IC50 [4]: > 40 µM | IC50 [5]: > 40 µM

CC(=O)O[C@H]1C(=O)[C@@]2(C)[C@H]([C@H](OC(=O)c3ccccc3)[C@]3(O)C[C@H](OC(=O)[C@H](O)[C@@H](NC(=O)c4ccccc4)c4ccccc4)C(C)=C1C3(C)C)[C@]1(OC(C)=O)CO[C@@H]1C[C@@H]2O [PACLITAXEL]
IC50 [1]: < 0.008 µM | IC50 [2]: < 0.008 µM | IC50 [3]: < 0.008 µM | IC50 [4]: < 0.008 µM | IC50 [5]: < 0.008 µM

CC(C)=CC[C@H]1C[C@]23C[C@H]4C(C)(C)c5ccccc5C(=O)[C@]45C(=O)[C@](CC=C(C)C)(C2=O)[C@@H](CC=C(C)C)[C@@]1(C)[C@@]35O
IC50 [1]: > 40 µM | IC50 [2]: 19.3 µM | IC50 [3]: 14 µM | IC50 [4]: 20.8 µM | IC50 [5]: 27.7 µM

C/C(=C\C[C@]12C[C@H]3C[C@@H]4C(C)(C)CC[C@@]4(C1=O)C(=O)[C@](C(=O)c1ccccc1)(C2=O)C3(C)C)CC/C=C/C(C)C
IC50 [6]: 9.8 µM

CC(C)=CC[C@]12C[C@@H]3[C@H](C=C(C)C)[C@](CC=C(C)C)(C1=O)C(=O)[C@](C(=O)c1ccccc1)(C2=O)C3(C)C [PLUKENETIONE A]
IC50 [1]: > 40 µM | IC50 [2]: 19.8 µM | IC50 [3]: 23.6 µM | IC50 [4]: 16.6 µM | IC50 [5]: 27.7 µM
